Measured values as given in ChEMBL document CHEMBL1157008, “Discovery of 2-{4-[(3S)-piperidin-3-yl]phenyl}-2H-indazole-7-carboxamide (MK-4827): a novel oral poly(ADP-ribose)polymerase (PARP) inhibitor efficacious in BRCA-1 and -2 mutant tumors” (J Med Chem, 2009).
Activity calls are given as the source filed them. The rule behind the calls is not given here.

Key:
[1] = target: Poly [ADP-ribose] polymerase 1 (Homo sapiens, UniProt P09874); test: Inhibition of human PARP1 by SPA
[2] = target: T1, PARP 1, 2 and 3 (Homo sapiens, UniProt P09874+Q9Y6F1+Q9UGN5); test: Inhibition of PARP in hydrogen peroxide-induced human HeLa cells assessed as inhibition DNA-damage-induced PARylation; format: cell-based
[3] = target: T2, Cytochrome P450 1A2 (Rattus norvegicus, UniProt P04799); test: (§1) Intrinsic clearance in rat liver microsomes assessed per mg of protein up to 60 mins in presence of rat recombinant CYP1A2; format: ADME, Microsome; details: microsomes, 1 h
T2 sequence (P04799 whole entry): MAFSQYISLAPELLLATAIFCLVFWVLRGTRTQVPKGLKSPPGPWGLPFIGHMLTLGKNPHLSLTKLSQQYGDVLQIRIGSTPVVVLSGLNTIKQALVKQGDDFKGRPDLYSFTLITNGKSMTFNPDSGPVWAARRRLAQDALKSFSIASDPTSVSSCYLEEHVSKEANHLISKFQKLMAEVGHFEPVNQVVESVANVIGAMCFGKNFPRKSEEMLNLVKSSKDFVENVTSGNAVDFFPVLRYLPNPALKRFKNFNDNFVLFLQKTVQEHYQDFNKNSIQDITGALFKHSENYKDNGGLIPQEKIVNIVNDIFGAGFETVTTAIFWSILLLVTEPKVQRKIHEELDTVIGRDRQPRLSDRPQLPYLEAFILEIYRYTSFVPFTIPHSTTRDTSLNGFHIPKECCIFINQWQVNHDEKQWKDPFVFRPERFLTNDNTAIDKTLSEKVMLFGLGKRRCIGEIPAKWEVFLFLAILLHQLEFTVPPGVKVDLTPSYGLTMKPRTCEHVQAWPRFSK

[4] = test system: HeLa; test: Antiproliferative activity against human HeLa cells expressing wild type BRCA1 after 7 days by cell titer-blue assay; format: functional; details: 168 h
[5] = Intrinsic clearance in mouse liver microsomes assessed per mg of protein up to 90 mins; format: ADME, Microsome
[6] = Plasma clearance in rat; format: ADME, organism-based
[7] = target: T1, PARP 1, 2 and 3; details: HeLa
[8] = test system: HeLa; test: Antiproliferative activity against BRCA1 deficient human HeLa cells after 7 days by cell titer-blue assay; format: functional; details: 168 h
[9] = Solubility in phosphate buffer; format: physicochemical
[10] = Intrinsic clearance in rat liver microsomes assessed per mg of protein up to 90 mins; format: ADME, Microsome
[11] = test system: HeLa; test: Selectivity index, ratio of CC50 for BRCA1 proficient human HeLa cells to CC50 for BRCA1 deficient human HeLa cells; format: functional
[12] = Volume of distribution in rat; format: ADME, organism-based; details: in vivo
[13] = Terminal half life in rat; format: ADME, organism-based; details: in vivo, read-out: beta t1/2 (converted)
[14] = Oral bioavailability in rat; format: ADME, organism-based; details: in vivo
[15] = target: T3, CYP1A2 (Rattus norvegicus, UniProt P04799); test: as §1; format: ADME, Microsome; details: rat liver microsomes with rat recombinant CYP1A2
T3 sequence (P04799 whole entry): T2 sequence (P04799 whole entry)

[16] = Antiproliferative activity against human PrEC cells after 6 to 7 days by cell titer-blue assay
[17] = test system: CAPAN-1; test: cells; details: Homo sapiens, CAPAN-1, 312 h
Description: Antiproliferative activity against human Capan1 cells expressing BRCA2 6174delT mutation and loss of wild-type allele after 13 days by cell titer-blue assay

[18] = cells; details: Homo sapiens, MDA-MB-436, 144 h
Description: Antiproliferative activity against human MDA-MB-436 cells expressing BRCA1 5396 + 1G>A mutant after 6 days by cell titer-blue assay

[19] = test system: MDA-MB-436; details: Homo sapiens, 100 mg/kg
Description: Antitumor activity against human MDA-MB-436 cells expressing BRCA1 5396 + 1G>A mutant xenografted in CD1 mouse assessed as tumor regression at 100 mg/kg, po qd for 33 days

[20] = Antiproliferative activity against HMEC after 6 to 7 days by cell titer-blue assay; details: human, HMEC cells
[21] = test system: MDA-MB-436; details: Homo sapiens, 50 mg/kg
Description: Antitumor activity against human MDA-MB-436 cells expressing BRCA1 5396 + 1G>A mutant xenografted in CD1 mouse assessed as tumor regression at 50 mg/kg, po bid for 33 days

[22] = Biodistribution in iv dosed rat urine within 24 hrs; format: ADME, organism-based; details: in vivo
[23] = Intrinsic clearance in rat kidney microsomes assessed per mg of protein in presence of NADPH; format: ADME, Microsome
[24] = Intrinsic clearance in rat lung microsomes assessed per mg of protein in presence of NADPH; format: ADME, Microsome
[25] = Intrinsic clearance in rat intestine microsomes assessed per mg of protein in presence of NADPH; format: ADME, Microsome
[26] = Metabolic stability in rat heart microsomes assessed as compound degradation in presence of NADPH; format: ADME
[27] = Biodistribution in iv dosed rat urine assessed as tert-butyl (3S)-3-{4-[7-(aminocarbonyl)-2H-indazol-2-yl]phenyl}piperidine-1-carboxylate level within 24 hrs; format: ADME, organism-based; details: in vivo
[28] = Intrinsic clearance in rat liver microsomes assessed per mg of protein in presence of NADPH; format: ADME, Microsome

Sequence of Poly [ADP-ribose] polymerase 1 (P09874 whole entry): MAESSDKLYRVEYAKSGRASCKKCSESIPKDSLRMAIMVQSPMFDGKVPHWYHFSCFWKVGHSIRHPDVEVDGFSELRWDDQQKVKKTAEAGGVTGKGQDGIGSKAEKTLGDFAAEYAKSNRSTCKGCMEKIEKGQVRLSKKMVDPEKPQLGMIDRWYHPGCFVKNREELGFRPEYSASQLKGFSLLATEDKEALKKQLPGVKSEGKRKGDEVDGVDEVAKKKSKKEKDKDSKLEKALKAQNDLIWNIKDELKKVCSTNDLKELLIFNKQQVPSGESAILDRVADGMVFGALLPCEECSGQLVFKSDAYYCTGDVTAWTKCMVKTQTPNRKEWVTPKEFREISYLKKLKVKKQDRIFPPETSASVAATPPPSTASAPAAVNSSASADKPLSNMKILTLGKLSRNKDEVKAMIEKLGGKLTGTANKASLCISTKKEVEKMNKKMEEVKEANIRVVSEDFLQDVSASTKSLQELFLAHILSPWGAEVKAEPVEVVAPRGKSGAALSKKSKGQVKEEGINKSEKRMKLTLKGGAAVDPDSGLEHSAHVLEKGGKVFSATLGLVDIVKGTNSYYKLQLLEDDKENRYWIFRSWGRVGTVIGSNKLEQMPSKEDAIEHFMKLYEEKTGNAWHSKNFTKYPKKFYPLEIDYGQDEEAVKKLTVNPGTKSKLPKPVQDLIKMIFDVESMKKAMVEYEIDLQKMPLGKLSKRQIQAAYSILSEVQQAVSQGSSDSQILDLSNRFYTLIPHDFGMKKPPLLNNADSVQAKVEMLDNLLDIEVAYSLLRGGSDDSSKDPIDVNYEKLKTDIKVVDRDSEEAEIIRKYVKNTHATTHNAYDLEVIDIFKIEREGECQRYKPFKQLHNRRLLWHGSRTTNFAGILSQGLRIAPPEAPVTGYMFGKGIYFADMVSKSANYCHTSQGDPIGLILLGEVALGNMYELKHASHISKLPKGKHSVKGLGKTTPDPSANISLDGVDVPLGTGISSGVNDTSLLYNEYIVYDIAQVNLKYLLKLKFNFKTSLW

IC50 [1] [nM] | microsomal CLint [5] [µL/min/mg] | clearance [6] [mL/min/kg] | EC90 [7] [nM] | microsomal CLint [10] [µL/min/mg] | microsomal CLint [15] [µL/min/mg] | Structure (SMILES) | EC50 [2] [nM] | CC50 [4] [µM] | CC50 [8] [nM] | also measured
2.1 | – | – | – | – | – | NC(=O)c1cccc2cn(-c3ccc(CNCCF)cc3)nc12 | > 5000 | – | – | –
3.7 | 1 | 450 | 630 | 177 | – | CN(C)Cc1ccc(-n2cc3cccc(C(N)=O)c3n2)cc1 | 110 | 5.6 | 520 | CL [3]: 8.7 µL/min/mg; solubility [9]: > 3000 µg/mL; Selectivity Index [11]: 10
100 | – | – | – | – | – | NC(=O)c1cccc2cn(-c3ccccc3Cl)nc12 | – | – | – | –
24 | 138 | 30 | 6200 | 123 | – | NC(=O)c1cccc2cn(-c3ccccc3)nc12 | 3700 | – | – | Vd [12]: 1.8 L/kg; half-life [13]: 306 min; bioavailability [14]: 41%
31 | 2 | 8 | 2700 | 34 | < 0.1 | CN1CCN(Cc2ccc(-n3cc4cccc(C(N)=O)c4n3)cc2)CC1 | 1100 | 7.9 | 2700 | bioavailability [14]: 11%; Selectivity Index [11]: 3
– | 4 | 28 | 45 | 16 | – | NC(=O)c1cccc2cn(-c3ccc([C@@H]4CCCNC4)cc3)nc12 [NIRAPARIB] | – | 0.86 | 33 | CL [3]: 0.3 µL/min/mg; CC50 [16]: > 5 µM; CC50 [17]: 90 nM; CC50 [18]: 18 nM; bioavailability [14]: 65%; inhibition [19]: Active; CC50 [20]: > 5 µM; inhibition [21]: Active
71 | – | – | – | – | – | NC(=O)c1cccc2nn(-c3ccccc3)nc12 | – | – | – | –
6.7 | 1 | 131 | 2000 | 18 | 0.8 | CC(C)NCc1ccc(-n2cc3cccc(C(N)=O)c3n2)cc1 | 700 | 10 | 2000 | –
16 | < 1 | – | 900 | 11 | – | CNC(C)(C)c1ccc(-n2cc3cccc(C(N)=O)c3n2)cc1 | 110 | 5.5 | 920 | CL [3]: 0.4 µL/min/mg
14 | – | – | 5600 | – | – | NC(=O)c1cccc2cn(-c3cccc(Cl)c3)nc12 | 450 | – | – | –
24 | – | – | 6700 | – | – | NC(=O)c1cccc2cn(-c3ccc(Cl)cc3)nc12 | 720 | – | – | –
4.3 | – | – | 2100 | – | – | CCNCc1ccc(-n2cc3cccc(C(N)=O)c3n2)cc1 | 150 | 7.4 | 1600 | –
3.8 | 3 | 220 | 740 | 28 | 6 | CNCc1ccc(-n2cc3cccc(C(N)=O)c3n2)cc1 | 68 | 5.4 | 460 | Drug uptake [22]: 80 %ID; microsomal CLint [23]: 22 µL/min/mg; microsomal CLint [24]: 22 µL/min/mg; microsomal CLint [25]: 5 µL/min/mg; bioavailability [14]: 23%; Stability [26]: Stable; Drug uptake [27]: 50 %ID; microsomal CLint [28]: 28 µL/min/mg; Selectivity Index [11]: 10
200 | – | – | – | – | – | CNCCc1ccc(-n2cc3cccc(C(N)=O)c3n2)cc1 | – | > 20 | 19000 | –
– | 1 | 47 | 220 | 11 | – | NC(=O)c1cccc2cn(-c3ccc(C4CCCNC4)cc3)nc12 (stereo not given) | – | 2 | 72 | CL [3]: 0.3 µL/min/mg; bioavailability [14]: 74%
– | 3 | 24 | 280 | 7 | < 0.1 | NC(=O)c1cccc2cn(-c3ccc([C@H]4CCCNC4)cc3)nc12 | – | 5.7 | 470 | bioavailability [14]: 47%
14 | – | – | 7600 | – | – | NC(=O)c1cccc2cn(-c3ccc(CNCC(F)F)cc3)nc12 | 3400 | > 6.6 | > 6600 | –
5.3 | 5 | 69 | – | 32 | 5.4 | CNCc1cccc(-n2cc3cccc(C(N)=O)c3n2)c1 | – | > 20 | 10300 | –
5.9 | – | – | 4400 | – | – | CN(C)CCN(C)Cc1ccc(-n2cc3cccc(C(N)=O)c3n2)cc1 | 170 | > 20 | 3900 | –
3.7 | 1 | 58 | 680 | 9 | 2.2 | CNC(C)c1ccc(-n2cc3cccc(C(N)=O)c3n2)cc1 (stereo not given) | 58 | 14 | 3100 | –
4.8 | – | – | 450 | – | – | NC(=O)c1cccc2cn(-c3ccc(CN4CCCC4)cc3)nc12 | 94 | 8.1 | 1200 | Selectivity Index [11]: 5
1.4 | 3 | – | 140 | 36 | – | NC(=O)c1cccc2cn(-c3ccc4c(c3)CCNC4)nc12 | 13 | 5.4 | 270 | CL [3]: 0.7 µL/min/mg; bioavailability [14]: 22%; Selectivity Index [11]: 20

Structure (SMILES) | IC50 [1] [nM] | microsomal CLint [5] [µL/min/mg] | clearance [6] [mL/min/kg] | EC90 [7] [nM] | microsomal CLint [10] [µL/min/mg] | microsomal CLint [15] [µL/min/mg] | EC50 [2] [nM] | CC50 [4] [µM] | CC50 [8] [nM] | also measured
NC(=O)c1cccc2cn(-c3ccc(C4CCNCC4)cc3)nc12 | 9 | 5 | – | – | 15 | < 0.1 | – | 4.5 | 410 | –
NC(=O)c1cccc2cn(-c3ccc(CN4CCOCC4)cc3)nc12 | 17 | – | – | 6200 | – | – | 1200 | > 20 | 5300 | –
NC(=O)c1cccc2cc(-c3ccccc3)nn12 | 55 | – | – | – | – | – | – | – | – | –
NC(=O)c1cccc2cn(-c3ccc4c(c3)CNCC4)nc12 | 2.2 | 4 | 87 | 310 | 52 | 0.7 | 46 | 2.2 | 130 | Selectivity Index [11]: 16
NC(=O)c1cccn2nc(-c3ccccc3)nc12 | 270 | – | – | – | – | – | – | – | – | –
NC(=O)c1cccc2cn(-c3ccc(C4CCCN4)cc3)nc12 (stereo not given) | 3.1 | 4 | – | 430 | 22 | 2.5 | 31 | 10 | 190 | –
NC(=O)c1cccc2cn(-c3ccc(CN4CCCCC4)cc3)nc12 | 1.9 | 3 | 107 | 970 | 29 | 3.8 | 180 | 5.8 | 880 | Selectivity Index [11]: 5
NC(=O)c1cccc2cn(Cc3ccccc3)nc12 | 130 | – | – | > 5000 | – | – | > 5000 | – | – | –
